Nine compounds from PubChem BioAssay (NCI) can be followed below.

Among the test systems are A498 renal; HL-60(TB) leukemia; HOP-62 NSCLC; HS 578T breast; HT29 colon; IGROV1 ovarian; MALME-3M melanoma; MOLT-4 leukemia; NCI-H460 lung; NCI-H522 lung; SK-MEL-5 melanoma; SK-OV-3 ovarian; SN12C renal; TK-10 renal.
What all share (test): growth of human tumour cells (NCI), 48 h

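Growth conditions: 96-well plates. Treatment: test compound, 48 hours, 5 concentrations. Analysis: linear interpolation between bracketing concentrations; unreached endpoints set to highest concentration. At the TGI there is no net growth.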 A value given as a limit tells only on which side of the number the result lay.

For the compound `C=C1C(=O)OC2/C=C(\C)C(O)CC(O)C(C)(O)CC(OC(=O)/C(C)=C/C)C12` (stereo unspecified), the TGI in the test with A498 renal was more than 84.3 µM; in the test on HL-60(TB) leukemia, more than 82.8 µM; in the test with HOP-62 NSCLC, more than 100 µM; in the test on HS 578T breast it was more than 100 µM; in the test with HT29 colon, more than 100 µM; in the test with IGROV1 ovarian, more than 100 µM. Moreover, the TGI in the test with MALME-3M melanoma, in the test on MOLT-4 leukemia, in the test on NCI-H460 lung, in the test with NCI-H522 lung, in the test with SK-MEL-5 melanoma and in the test on SK-OV-3 ovarian was more than 100 µM in each case. The TGI in the test with SN12C renal and in the test with TK-10 renal was more than 100 µM each time.

As to `C=C1CC/C=C(/C(=O)O)CC[C@H]2[C@@H]1CC2(C)C`, the TGI in the test on A498 renal, in the test with HL-60(TB) leukemia, with HOP-62 NSCLC, in the test on HS 578T breast, with HT29 colon and in the test with IGROV1 ovarian was more than 100 µM each time. In addition, the TGI in the test with MALME-3M melanoma, in the test on MOLT-4 leukemia, in the test with NCI-H460 lung, with NCI-H522 lung, in the test with SK-MEL-5 melanoma and in the test on SK-OV-3 ovarian was more than 100 µM each time. Besides, the TGI in the test on SN12C renal and in the test on TK-10 renal was more than 100 µM each time.

For the compound `NC1CC2C3CCC2C1C3=O` (stereo unspecified), the TGI in the test on A498 renal, in the test on HL-60(TB) leukemia, in the test on HOP-62 NSCLC, in the test on HS 578T breast, with HT29 colon and in the test on IGROV1 ovarian was more than 100 µM throughout. For the same compound, the TGI in the test on MALME-3M melanoma, in the test with MOLT-4 leukemia, in the test with NCI-H460 lung, in the test on NCI-H522 lung, in the test on SK-MEL-5 melanoma and with SK-OV-3 ovarian was more than 100 µM throughout. Besides, the TGI in the test with SN12C renal and with TK-10 renal was more than 100 µM in each case.

Consider `O=[N+]([O-])CC(SCc1ccccc1)c1ccc2c(c1)OCO2` (stereo unspecified), for which the TGI with A498 renal was found to be 18.8 µM; in the test on HL-60(TB) leukemia it was 3.68 µM; in the test on HOP-62 NSCLC it was 33 µM; with HS 578T breast, 18.2 µM; in the test on HT29 colon it was 7.64 µM; in the test on IGROV1 ovarian, 12.7 µM. Also, the TGI amounted to 30.1 µM in the test with MALME-3M melanoma; 21.1 µM with MOLT-4 leukemia; 37.9 µM in the test with NCI-H460 lung; 28.3 µM with NCI-H522 lung; 25 µM in the test on SK-MEL-5 melanoma; 28.6 µM in the test with SK-OV-3 ovarian. Besides, the TGI amounted to 25.7 µM in the test on SN12C renal and 25.2 µM in the test on TK-10 renal.

On to `FC(F)(F)c1ccc2c(c1)nc(Cc1ccccc1)n2C[C@@H]1CCCN2CCCCC12` (stereo partly specified), for which the TGI with A498 renal amounted to 29.1 µM; with HL-60(TB) leukemia, 13.9 µM; in the test on HOP-62 NSCLC, 28.7 µM; with HS 578T breast it was 57 µM; in the test with HT29 colon, 26.8 µM; in the test on IGROV1 ovarian it was 28.9 µM. The TGI with MALME-3M melanoma was 31.1 µM; in the test on MOLT-4 leukemia it was more than 52.7 µM; in the test on NCI-H460 lung, 31.9 µM; in the test on NCI-H522 lung, 31.6 µM; in the test with SK-MEL-5 melanoma, 29.6 µM; in the test with SK-OV-3 ovarian, 31.3 µM. Also, the TGI is 27 µM in the test with SN12C renal and 31.3 µM in the test with TK-10 renal.

Regarding `COC(=O)c1ccc2n1C1CC3CC(CC2C3)C1`, the TGI is more than 100 µM in the test on A498 renal; 54.7 µM in the test on HL-60(TB) leukemia; more than 100 µM with HOP-62 NSCLC; more than 100 µM in the test with HS 578T breast; more than 100 µM in the test on HT29 colon; more than 100 µM in the test on IGROV1 ovarian. In addition, the TGI in the test with MALME-3M melanoma, with MOLT-4 leukemia, in the test with NCI-H460 lung, with NCI-H522 lung, in the test on SK-MEL-5 melanoma and with SK-OV-3 ovarian was more than 100 µM each time. The TGI with SN12C renal and in the test with TK-10 renal was more than 100 µM each time.

As to `COc1cccc(NCC(=O)Nn2c(-c3ccccc3)nc3ccccc3c2=O)c1`, the TGI was 85 µM in the test with A498 renal; more than 100 µM in the test with HL-60(TB) leukemia; more than 100 µM in the test with HOP-62 NSCLC; more than 100 µM in the test with HS 578T breast; more than 100 µM in the test on HT29 colon; more than 100 µM in the test on IGROV1 ovarian. For the same compound, the TGI with MALME-3M melanoma, with MOLT-4 leukemia, in the test with NCI-H460 lung, in the test with NCI-H522 lung, in the test on SK-MEL-5 melanoma and in the test on SK-OV-3 ovarian was more than 100 µM throughout. Moreover, the TGI in the test on SN12C renal and in the test with TK-10 renal was more than 100 µM each time.

As to `Oc1cc(Cl)cc2cc(Br)cnc12`, the TGI is more than 88.7 µM in the test with A498 renal; 1.37 µM with HL-60(TB) leukemia; more than 55.1 µM with HOP-62 NSCLC; more than 100 µM in the test with HS 578T breast; more than 100 µM in the test on HT29 colon; more than 94.1 µM in the test on IGROV1 ovarian. Moreover, the TGI in the test on MALME-3M melanoma is 21 µM; in the test with MOLT-4 leukemia, 6.96 µM; with NCI-H460 lung it was more than 57.7 µM; with NCI-H522 lung, more than 69.9 µM; in the test with SK-MEL-5 melanoma, 3.24 µM; with SK-OV-3 ovarian, more than 100 µM. The TGI with SN12C renal and in the test with TK-10 renal was more than 100 µM each time.

For `COc1ccc(-c2cc(-c3ccc(Nc4ccnc5cc(C(F)(F)F)ccc45)cc3)[nH]c(=O)c2C#N)c2ccccc12`, the TGI in the test with A498 renal was more than 58.4 µM; in the test with HL-60(TB) leukemia it was more than 100 µM; with HOP-62 NSCLC, 47.2 µM; in the test with HS 578T breast, more than 100 µM; in the test with HT29 colon, more than 74.2 µM; with IGROV1 ovarian it was more than 100 µM. Besides, the TGI in the test with MALME-3M melanoma is more than 63.2 µM; with MOLT-4 leukemia, more than 100 µM; in the test on NCI-H460 lung it was more than 100 µM; in the test on NCI-H522 lung, more than 100 µM; in the test with SK-MEL-5 melanoma, more than 100 µM; with SK-OV-3 ovarian, more than 100 µM. The TGI with SN12C renal is more than 100 µM; with TK-10 renal, more than 90.7 µM.
